Laboratory results taken from PubChem BioAssay AID504313 (Emory University Molecular Libraries Screening Center, 2011).
Activity calls are given as the source filed them. How the calls were made is not given here.

Biological target: X-box-binding protein 1 (Homo sapiens) (UniProt P17861)
Test: inhibitors of XBP1 reporter signal, dose response, counter-screen, cell-based (AID 504313);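 further: CHO cells carrying an XBP1 reporter stimulated with tunicamycin; potency is for inhibition of the tunicamycin-induced reporter signal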
Conditions: XBP1 reporter cell assay, percent of control

SMILES | IC50
COc1ccc(NS(=O)(=O)c2ccc(O)c(NC(=O)c3cc4c(C)nn(-c5ccc(F)cc5)c4s3)c2)cc1 | > 10 µM (inactive)
O=C(OCn1ncc(Cl)c(Cl)c1=O)c1ccc(C(F)(F)F)cc1 | > 10 µM (inactive)
CCn1c(C)nc2cc(-c3nnc(-c4c(-c5ccccc5)noc4C)o3)ccc21 | > 10 µM (inactive)
CCCc1cc(-c2nc(N)ncc2-c2ccc3c(c2)OCCCO3)c(O)cc1OC | 5.01 µM
COc1ccc(Cc2nc3ccccc3n2CC(=O)N/N=C/c2ccc(C)cc2O)cc1OC | > 10 µM (inactive)
CCC(C)NC(=O)c1c(N)n(CC2CCCO2)c2nc3ccccc3nc12 (stereo not drawn) | > 10 µM (inactive)
O=C1CC(Sc2nnnn2-c2ccccc2)C(=O)N1c1cccc(Cl)c1 (stereo not drawn) | > 10 µM (inactive)
Cc1cc(C)c(S(=O)(=O)c2ccccc2)c(OC(=O)c2cc(F)c(F)cc2Cl)n1 | inactive
CC[n+]1c(/C=C2\Sc3ccccc3N2C)ccc2cccc(C)c21 | 0.24 µM
CCCCCCCCCCCCCCCCn1cc[n+](C)c1 | inactive
O=C(Nc1ccc(F)cc1)Nc1ccc(N2CCCC2)c(S(=O)(=O)Nc2ccccc2Cl)c1 | inactive
C=C(C)COc1ccc(-c2n[nH]c(C)c2-c2ccccc2OC)c(O)c1 | > 10 µM (inactive)
O=C(NCc1ccccc1Cl)c1ccc(S(=O)(=O)Nc2cccc(C(F)(F)F)c2)cc1 | > 10 µM (inactive)
CCCCc1ccc(NC(=S)Nc2ccc(Cl)c(S(=O)(=O)N(C)C)c2)cc1 | > 10 µM (inactive)
O=C(CCl)Nc1cn(-c2ccccc2)nc1-c1ccc(F)cc1 | > 10 µM (inactive)
O=C1C(=O)c2ccc(-c3ccccc3)cc2-c2ccccc21 | 3.26 µM
CC1CCC(C(C)C)C(OCC(O)CN2CCN(Cc3ccccc3)CC2)C1 (stereo not drawn) | > 10 µM (inactive)
COc1cccc(-c2nnc(NC(=O)c3ccc(S(=O)(=O)N(CC(C)C)CC(C)C)cc3)o2)c1 | inactive
CCc1c(C)sc(NC(=O)CSc2nc3c(c(C(F)(F)F)n2)CCc2ccccc2-3)c1C#N | > 10 µM (inactive)
COc1ccccc1NC(=O)c1c(Nc2ccccc2C)sc(C(=O)Nc2cccc(Cl)c2)c1N | > 10 µM (inactive)
O=C(NC(Nc1nc2ccc([N+](=O)[O-])cc2s1)(C(F)(F)F)C(F)(F)F)c1ccccc1Cl | 0.34 µM
CCSCCc1nnc(NC(=O)Nc2cccc(C(F)(F)F)c2)s1 | 4.74 µM
CN(C)c1ccc(C(CNS(=O)(=O)c2ccc(F)c(F)c2)c2c[nH]c3ccccc23)cc1 (stereo not drawn) | inactive
O=C(O)c1cccc(COc2ccccc2Cl)c1 | 0.91 µM
O=C(CCl)N(Cc1cccc([N+](=O)[O-])c1)c1cccc(Cl)c1 | inactive

SMILES | IC50
COc1ccc(NC(=O)/C(Cl)=C(/Cl)S(=O)Cc2ccccc2Cl)cn1 (stereo not drawn) | 0.92 µM
O=C(Nc1ccccc1Cl)/C(Cl)=C(\Cl)S(=O)c1ccccc1 (stereo not drawn) | 2.4 µM
COC(=O)C[C@]1(C(=O)OC)CN(C#N)N(c2ccc(Cl)cc2)C12c1ccccc1-c1ccccc12 | 4.38 µM
O=C1C=CC(=O)N1N(c1ccccc1)c1ccccc1 | > 10 µM (inactive)
Cc1cc(C)cc(OC2CCCCC2NS(=O)(=O)c2ccccc2)c1 (stereo not drawn) | > 10 µM (inactive)
CC[C@@H]1CC=C[C@H]2[C@H]1C(=O)N(Cc1ccccc1)[C@H]2c1ccoc1 | inactive
CCOC(=O)c1cnc(-n2nc(C)cc2C)nc1Nc1ccc(O)cc1 | 1.26 µM
C#CC(=O)N(c1ccc(OC)c(OC)c1)C(C(=O)NC1CCCC1)c1cccs1 (stereo not drawn) | inactive
Cc1cc(C2=NNC(=NC3CC3)SC2)c(C)n1-c1ccccc1F | < 0.16 µM (inactive)
CCCCCCCCNC(C)C(O)c1ccc(SC(C)C)cc1 (stereo not drawn) | 4.76 µM
CSc1nc2c(cnn2-c2ccc(C)c(C)c2)c(=O)[nH]1 | > 10 µM (inactive)
CC(C)Oc1cc(NC(=O)CS(=O)CC(=O)Nc2cccc(C(F)(F)F)c2)c(Cl)cc1Cl (stereo not drawn) | inactive
CC(C)(C)c1ccc(O)c(N=Cc2cc(Br)ccc2O)c1 | inactive
CC(C)(C)OC(=O)CNC(=O)c1[nH]cnc1C(=O)Nc1ccc(Cl)cc1 | inactive
O=C(O)c1ccc(N/N=C/c2ccc3nccnc3c2)cc1 | 1.83 µM
O=C(Cc1csc(Nc2nc(=S)[nH]c3ccccc23)n1)NCCCN1CCN(c2ccccc2F)CC1 | > 10 µM (inactive)
C/C(=N\NC(=O)c1nn(C)c(C)c1Br)c1ccc(NC(=O)c2ccoc2C)cc1 | > 10 µM (inactive)
CCCCCCn1c(CN2CCCC(C)C2)nc2c1c(=O)n(C)c(=O)n2C (stereo not drawn) | > 10 µM (inactive)
O=C(Nc1cccc(-c2nc3ncccc3o2)c1)c1sc2ccccc2c1Cl | > 10 µM (inactive)
Cc1ccc(C(=O)N/C(=C\c2ccc(Br)cc2)c2nc(=S)[nH][nH]2)cc1 | > 10 µM (inactive)
C[C@H](NC(=O)c1[nH]cnc1C(=O)Nc1ccc(CNC(=O)OC(C)(C)C)cc1)C(=O)OC(C)(C)C | inactive
CCCc1cc(=O)[nH]c(Nc2ccc(N3CCCCC3)cc2)n1 | > 10 µM (inactive)
COc1ccccc1-n1cc([C@@H]2C[C@H]3CN(c4ccccc4)C(=O)[C@]34CCCN24)cn1 | 0.74 µM
O=C(Nc1ccc(OC(F)F)cc1)Nc1cccc(C(F)(F)F)c1 | > 10 µM (inactive)
CC1CCN(c2nc3ccc(C(=O)O)cc3s2)CC1 | inactive

SMILES | IC50
Cc1cc(C)n(-c2nc(Nc3ccccc3C(F)(F)F)nc(-n3nc(C)cc3C)n2)n1 | inactive
CC(=O)/C=C/n1c(=S)oc2ccccc21 | inactive
CN1CCc2c(sc(NC(=O)c3cc4cc([N+](=O)[O-])ccc4s3)c2C(N)=O)C1 | > 10 µM (inactive)
CC1=Nc2nc(N3CCCCC3)c(C#N)c3c4c(nc(c23)N1)N(c1ccc(C(C)C)cc1)C(=O)C4 | inactive
Nc1c(C(=O)Nc2ccccc2F)sc2nc(-c3cccnc3)ccc12 | > 10 µM (inactive)
CCOC(=O)c1c(-n2c(C)cc(C=C3C(=O)NC(=S)NC3=O)c2C)sc2c1CCCC2 | inactive
Cc1nc2c(=O)n(C)c(=O)n(C)c2nc1Cl | inactive
O=[N+]([O-])c1ccc(/C=N/N=C/c2ccc([N+](=O)[O-])o2)o1 | 2.59 µM
CC(C)(C)c1ccc(S(=O)(=O)NCC(=O)Nc2sc3c(c2C(N)=O)CCCC3)cc1 | > 10 µM (inactive)
CC1(c2ccccc2)CC(C)(C)N2C(=O)/C(=C3\SC(=S)NC3=O)c3cccc1c32 (stereo not drawn) | inactive
Cc1cccc(OCc2n(CC(=O)OC3CC(C)CCC3C(C)C)c3ccccc3[n+]2C)c1 (stereo not drawn) | > 10 µM (inactive)
CN1CCN(CC(=O)N2CCn3c4c(c5cc(C6CCCCC6)ccc53)CCCC42)CC1 (stereo not drawn) | > 10 µM (inactive)
O=C(Nc1ccc(-c2nc3ccccc3s2)cc1)C1=COCCO1 | inactive
Cc1ccccc1Oc1cc(-n2ncc(Cl)c(Cl)c2=O)ncn1 | 1.75 µM
CS(=O)(=O)c1ncc(Cl)c(C(=O)Nc2ccc(N3CCOCC3)cc2)n1 | inactive
CCCCCCN1C=CC(=C2C(=O)c3ccccc3C2=O)C=C1 | inactive
CC(C)(C)c1ccc(C(=O)Nc2ccc(CC(=O)O)cc2)o1 | < 0.16 µM
CCOc1ccc(/C=C/C2=Cc3c(sc(NC(=O)CSc4n[nH]c(N)n4)c3C#N)C(C)(C)C2)cc1 | > 10 µM (inactive)
CC(C)(C)c1ccc(OCC(=O)N/N=C/C2CC=CCC2)cc1 (stereo not drawn) | inactive
O=S(=O)(Nc1cccc2c1CCCC2)c1cccc(C(F)(F)F)c1 | inactive
COc1ccc(OC)c2sc(NC(=O)c3ccc(Cl)s3)nc12 | > 10 µM (inactive)
O=[N+]([O-])c1c(NCCCO)cc(Sc2ccc(Cl)cc2)c2nonc12 | inactive
CC(C)(C)C(=O)c1no[n+]([O-])c1/C(=N/O)C(C)(C)C | > 10 µM (inactive)
CCOC(=O)Cc1cc(-c2ccc(O)cc2)nc2ccc3ccccc3c12 | > 10 µM (inactive)
O=C(CN1c2ccccc2Sc2ccccc21)NNC(=O)Nc1cccc(Cl)c1 | > 10 µM (inactive)

SMILES | IC50
Nc1ccc(SC(F)(F)F)cc1C(=O)c1ccccc1 | inactive
Cc1ccc(NC(=O)NC(=O)CN2C(=O)NC3(CCCCCCC3)C2=O)c(C)c1 | > 10 µM (inactive)
CC1(c2ccccc2)CC(C)(C)N2C(=O)C3(C(C#N)=C(N)Oc4cc(O)ccc43)c3cccc1c32 (stereo not drawn) | > 10 µM (inactive)
O=C(Nc1ccccc1)C1=C(c2ccccc2)S(=O)(=O)CCS1(=O)=O | inactive
Cc1cc(C)c2nc(C(F)(F)F)c(C#N)c(N)c2c1 | > 10 µM (inactive)
O=C(c1nnsc1S(=O)(=O)c1ccc(Cl)cc1)N1CCOCC1 | inactive
C=CCSc1nc2ccccc2n1C(=O)/C=C/c1cc(OC)c(OC)c(OC)c1 | 1.73 µM
O=C(Nc1ccccc1NC(=O)NC1CCCCC1)NC1CCCCC1 | inactive
O=c1[nH]c(=O)n(Cc2ccco2)c2c1C(C(F)(F)F)(C(F)(F)F)N=C(c1ccc(F)cc1)N2 | > 10 µM (inactive)
CC1=NN(c2nc(-c3ccc(C)cc3)cs2)C(=O)C1N=Nc1ccccc1O (stereo not drawn) | inactive
Cc1ccc(N2C(=O)NC(=O)/C(=C\C=C\c3ccco3)C2=O)cc1 | inactive
NC(=O)CC(NC(=O)Cc1cccc2ccccc12)c1ccc(NCc2ccccc2)c([N+](=O)[O-])c1 (stereo not drawn) | > 10 µM (inactive)
Cc1ccc(C(=O)Nc2cnc3ccccc3c2)cc1 | 4.09 µM
COc1cc(/C=C(/C#N)c2nc3ccccc3[nH]2)ccc1OCC(=O)Nc1ccccc1C(C)C | inactive
CCCCCCCCCCCCCCCC[n+]1cccc2ccccc21 | < 0.16 µM (inactive)
O=c1oc2ccccc2c(Cl)c1CN1CCCCC1 | inactive
CC1CCC(C(C)C)C(OC(=O)COC(=O)c2cc(O)ccc2N)C1 (stereo not drawn) | inactive
Fc1c(F)c(C(F)(F)F)c(F)c(F)c1N/N=C\c1cccs1 | 4.26 µM
C=CCn1c(O)c(C(CC)=Nc2ccc(N(CC)CC)cc2)c(=O)[nH]c1=O | inactive
Cc1ccccc1CS(=O)(=O)c1nnc([C@H](CC(C)C)NC(=O)OC(C)(C)C)o1 | inactive
CN1/C(=C\C=C\C2=[N+](C)c3ccc4ccccc4c3C2(C)C)C(C)(C)c2ccccc21 | < 0.16 µM
Nc1cc(Cl)c2nonc2c1[N+](=O)[O-] | inactive
NC(N)=N/N=C/c1cn(-c2ccccc2)nc1-c1cccs1 | > 10 µM (inactive)
